Data from PMC10265664, “Peptide Antibiotic–Polyphosphate Nanoparticles: A Promising Strategy to Overcome the Enzymatic and Mucus Barrier of the Intestine” (Biomacromolecules, 2023).
Read-outs that look alike come from different tables or passages of the source.

Assays:
[1] = tested on: 50 multidrug-resistant Gram-negative bacterial strains; set-up: method as in PMID 33045992; settings: cited from earlier work
[2] = cited from earlier work
Text: The ionic strength of the polycation plays also an important role in the formation of such particles. […] PMB–PP NPs could therefore be formed.

[3] = tested on: lipase from porcine pancreas; test: Degradation study with lipase; type: in vitro ADME; settings: porcine pancreatic lipase, 37 °C, sampling 0-24 h, absorbance 210 nm, mean n = 3
Procedure: Enzymatic degradation of free PMB and PMB being incorporated into NPs was evaluated with lipase. Lipase solution was prepared by dissolving 0.5 g of the enzyme in 10 mL of digestion medium (2 mM Tris buffer with 5 mM CaCl2 and 150 mM NaCl). After homogenization for 10 min, the enzyme mixture was centrifuged at 12,000 rpm (Sigma 3-18KS, Austria) for 15 min at 4 °C.[17] Thereafter, 2 mL of the supernatant liquid was added to 4 mL of 0.01% (m/v) PMB–PP NPs suspension and incubated at 37 °C under constant shaking using a ThermoMixer (Eppendorf, Hamburg, Germany). Aliquots of 100 μL were withdrawn at predetermined time points (0, 1, 2, 4, 6, 12, and 24 h) and transferred to a 96-well microplate (μClear 96-well plates, Greiner bio-one, Austria). PMB–PP NPs and PMB suspension without lipase served as negative control and were incubated under the same conditions. […] The same settings were applied for PMB. The PMB concentration was determined using a calibration curve with increasing concentrations of PMB ranging from 0.78 to 50 μM.
Degradation was evaluated by quantifying the % remaining amount of PMB by the following equation: [drawing 3]

Polymyxin B sulfate [PMB]
MICs (minimum inhibitory concentrations) ([1]; 44 of 50 multidrug-resistant Gram-negative bacterial strains): ≥ 4 µg/mL | MICs (minimum inhibitory concentrations) ([1]; the other 6 of 50 multidrug-resistant Gram-negative bacterial strains): 2 µg/mL | isoelectric point [2]: 10.74 | PMB degraded after lipase exposure [3]: 39.32%
